From patent US9206236B2, “Peptides for treating cancer” (Gene Signal International SA, priority 2010, dated 2015)
“Also recorded” adds a separate entry of the source. Where a SMILES comes first, the peptide text is derived from it. [ ]: non-standard residue; d: D form. pY = N[C@@H](Cc1ccc(OP(=O)(O)O)cc1)C(=O)O

How the values were obtained:
[1] = system: human microvascular endothelial cells (HMEC); assay: In vitro angiogenesis assay (Matrigel tube formation); assay type: cell-based; settings: 500 μg/ml final concentration of peptide, images at 18 h
Protocol: Angiogenesis of human microvascular endothelial cells (HMEC) was induced in vitro using a Matrigel assay described by Al-Mahmood et al (2009, JPET, 2009; 58:933). This method is based on the differentiation of endothelial cells to form capillary structures on a Matrigel Matrix. Matrigel is prepared the Engelbreth-Holm-Swarm (EHS) mouse tumor, which represents a complex mixture of basement membrane proteins including type IV collagen, entactin, proteo-heparan sulfate and other growth factors.
Briefly, 250 μl of Matrigel were transferred to each well of a 24-well culture plate and incubated at 37° C. for 30 min to allow for the matrix solution to solidify. HMEC grown in complete growth medium EGM-2MV were harvested by trypsin, suspended in the same growth medium and 500 μl containing 70 000 cells were added on top of the solidified Matrigel in each well and in the presence or absence of peptide. Cells were maintained in a humidified atmosphere air containing 5% CO2 at 37° C. for 18-24 hrs. Endothelial tube formation was observed and photographed under an inverted light microscope.
The designed tyrosine phosphorylated and non phosphorylated peptides were tested for their influence onto the in vitro angiogenesis. The results of the in vitro angiogenesis assay were presented in FIG. 1, using HMEC and 500 μg/ml final concentration of each peptide.

[2] = target: T1, recruitment of the regulatory subunit (p85) of the enzyme PI-3K by IRS-1 (Homo sapiens, UniProt P27986); assay: Recruitment of p85 of PI-3K by IRS-1 (IRS-1 immunoprecipitation, anti-p85 immunoblot) in HMEC; assay type: cell-based; settings: final concentration of peptide 500 μg/ml
T1 construct: endogenous in cells; host or cells: human microvascular endothelial cells (HMEC)
T1 sequence (P27986 whole entry): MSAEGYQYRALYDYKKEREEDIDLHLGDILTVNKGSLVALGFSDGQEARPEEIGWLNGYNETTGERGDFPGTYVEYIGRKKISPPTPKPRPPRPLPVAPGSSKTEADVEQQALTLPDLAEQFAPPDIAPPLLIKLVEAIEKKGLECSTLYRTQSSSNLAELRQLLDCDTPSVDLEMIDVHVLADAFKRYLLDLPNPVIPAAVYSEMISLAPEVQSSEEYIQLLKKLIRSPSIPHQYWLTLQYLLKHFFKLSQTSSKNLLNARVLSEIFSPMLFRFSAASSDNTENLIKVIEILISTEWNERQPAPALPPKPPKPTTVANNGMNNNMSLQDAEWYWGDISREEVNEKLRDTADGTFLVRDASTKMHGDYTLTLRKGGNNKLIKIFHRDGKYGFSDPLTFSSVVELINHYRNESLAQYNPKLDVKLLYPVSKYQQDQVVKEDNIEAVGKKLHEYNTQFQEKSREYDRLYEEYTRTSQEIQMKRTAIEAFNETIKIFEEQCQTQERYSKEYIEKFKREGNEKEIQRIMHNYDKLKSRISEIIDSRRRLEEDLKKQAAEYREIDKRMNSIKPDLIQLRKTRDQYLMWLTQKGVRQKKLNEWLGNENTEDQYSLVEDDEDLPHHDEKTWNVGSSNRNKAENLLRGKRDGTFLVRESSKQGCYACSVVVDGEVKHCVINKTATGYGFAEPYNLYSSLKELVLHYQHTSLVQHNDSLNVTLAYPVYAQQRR
Protocol: (§1) Human EC grown in EGM-2MV (80% confluence) were incubated with the peptides of the invention or vehicle for the indicated time, washed three times in cold PBS and directly lysed in 2 ml of ice-cold lysis buffer (10 mM Tris pH 7.5, 150 mM NaCl, 1 mM PMSF, 0.5 μg/ml leupeptin, 1 μg/ml pepstatin A, and 1 μg/ml aprotinin) by incubation for 30 min at 4° C. Cell lysate were spun at […] for 10 min, insoluble materials were discarded, and protein contents measured by Bradford assay of supernatants were adjusted. Cell lysate (1 ml) was precleared with 25 μl of protein G-plus agarose beads (Santa Cruz) for 30 min, and proteins were then immunoprecipitated by adding 2 μg of the indicated antibody and incubated for 1 hr. The immunocomplex was pulled down with protein G-plus agarose beads and the beads were washed three times with lysis buffer. The immunoprecipitates were separated by NuPAGE® 4-12% Bis-Tris gel electrophoresis under reducing conditions, transferred to PVDF membrane (Novex System, Invitrogen), and the membrane was blocked with 5% (w/v) non-fat milk in TBS containing 0.1% v/v Tween-20 for 1 hr.
As it is widely admitted that the tyrosine phosphorylation of IRS-1 leads to its association with the regulatory subunit (p85) of the enzyme PI-3K, and this event lead to important increases in the enzymatic activity of this later, we have investigated the influence of the tyrosine phosphorylated and non phosphorylated peptides onto the recruitment of the regulatory subunit (p85) of the enzyme PI-3K by IRS-1. For that, human microvascular endothelial cells (HMEC) were incubated with the tyrosine phosphorylated and non phosphorylated peptides (final concentration of peptide 500 μg/ml) followed by cells lysis and immuoprecipitation of the protein IRS-1. The immunoprecipitates were then resolved in SDS-PAGE, proteins were transferred to membranes, and the membranes were immunoblotted with an anti-p85 PI3K monoclonal antibody.

mTOR = mTOR status in HMEC after incubation with peptides (anti-mTor antibody Ser2448); assay type: cell-based, human
Protocol: as §1
The status of mTOR in the HMEC following incubation with peptides GS-0 and GS-1 was investigated.

NCI-H460 tumors = assay: NCI-H460 tumor xenograft in nude mice, tumor volume (Example 3); assay type: in vivo
Protocol: H460 cell line has cytology compatible with human Non-Small Cell Lung Cancer (NSCL). Cells were grown in MEM medium containing 10% FCS at 37° C., 5% CO2 humidified atmosphere. The absence of mycoplasms was confirmed by using the PCR Mycoplasma Detection kit (Takara). All experiments were reviewed by the Genopole's institutional animal care and use committee and were performed in accordance with institutional guidelines for animal care. Female BALB/c nu/nu mice (n=30) were used at 5-6 weeks of age. The animals were housed in laminar air-flow cabinets under pathogen-free conditions with a 12 h light/12 h dark schedule, and fed autoclaved standard chow and water ad libitum. The NCI-H460 human NSCL cell line was obtained from American Type Culture Collection (ATCC) were grown in RPMI medium 1640 supplemented with 1 μM sodium pyruvate. Tumor cells (10^7 cells in 200 μl of HBSS) were injected subcutaneously into the right flanks of mice. After engraftment, tumor volume was measured by Vernier callipers, and calculated as described in Balsam A et al. (Balsari A et al. (2004) Eur J Cancer 40: 1275-1281). At tumor volume about 150 mm^3, animals were randomized, and separated into five groups of five animals. Control mice (group 1) were intraperitoneally injected with vehicle (10% DMSO in buffer saline) every day. GS-0 was dissolved in vehicle and intraperitoneally injected (group 2) every day (12 injections). GS-2 was dissolved in vehicle and intraperitoneally injected (group 3) every day (12 injections). Tumor volume and body weight were measured every other day over the treatment period (12 days). GS-2 as well as the control peptide GS-0 were solubilized in DMSO and the resulting solutions were diluted 10 times with phosphate buffer saline (PBS) to obtain a concentration of 1 mg of peptide/ml of 10% DMSO in PBS. At this concentration, all peptides were soluble in 10% DMSO.

[3] = Body weight and toxicity of mice bearing NCI-H460 tumors (Example 3); assay type: in vivo
Protocol: All experiments were reviewed by the Genopole's institutional animal care and use committee and were performed in accordance with institutional guidelines for animal care. Female BALB/c nu/nu mice (n=30) were used at 5-6 weeks of age. The animals were housed in laminar air-flow cabinets under pathogen-free conditions with a 12 h light/12 h dark schedule, and fed autoclaved standard chow and water ad libitum. […] Tumor cells (10^7 cells in 200 μl of HBSS) were injected subcutaneously into the right flanks of mice. […] At tumor volume about 150 mm^3, animals were randomized, and separated into five groups of five animals. Control mice (group 1) were intraperitoneally injected with vehicle (10% DMSO in buffer saline) every day. GS-0 was dissolved in vehicle and intraperitoneally injected (group 2) every day (12 injections). GS-2 was dissolved in vehicle and intraperitoneally injected (group 3) every day (12 injections). Tumor volume and body weight were measured every other day over the treatment period (12 days).

[4] = Solubility of peptides in 10% DMSO in PBS; assay type: physicochemical; settings: 1 mg of peptide/ml of 10% DMSO in PBS
Protocol: GS-1 as well as the control peptide GS-0 were solubilized in DMSO and the resulting solutions were diluted 10 times with phosphate buffer saline (PBS) to obtain a concentration of 1 mg of peptide/ml of 10% DMSO in PBS. At this concentration, all peptides were soluble in 10% DMSO.
GS-2 as well as the control peptide GS-0 were solubilized in DMSO and the resulting solutions were diluted 10 times with phosphate buffer saline (PBS) to obtain a concentration of 1 mg of peptide/ml of 10% DMSO in PBS. At this concentration, all peptides were soluble in 10% DMSO.

Structure (SMILES): CSCC[C@H](NC(=O)[C@H](CC(N)=O)NC(=O)[C@H](CCSC)NC(=O)[C@H](Cc1ccc(OP(=O)(O)O)cc1)NC(=O)[C@H](CCC(=O)O)NC(C)=O)C(=O)N[C@@H](CC(=O)O)C(N)=O [GS-2, EpYMNMD] (Ac-E[pY]MNMD-NH2)
- in vitro angiogenesis-inhibitory activity [1]: have in vitro angiogenesis-inhibitory activities
- influence onto the recruitment of the regulatory subunit (p85) of PI3K by IRS-1 [2]: moderate inhibitory effects
- amounts of mTOR in HMEC relative to vehicle (mTOR): much less amounts of mTOR
- influence on the in vivo growth of the tumor NCI-H460 (in words) (NCI-H460 tumors; 8 mg/kg i.p. daily for 12 days): highly significant and potent influence; also recorded: statistically significant and potent anti-tumoral activity
- mean tumor volume at the end of treatment (NCI-H460 tumors; 8 mg/kg i.p. daily for 12 days, n=5): 297.28 ± 142.67 mm^3
- Mean tumor volume D1 (NCI-H460 tumors; Table 4, 8 mg/kg i.p. daily, day 1): 124 mm³
- Mean tumor volume D3 (NCI-H460 tumors; Table 4, 8 mg/kg i.p. daily, day 3): 129 mm³
- Mean tumor volume D5 (NCI-H460 tumors; Table 4, 8 mg/kg i.p. daily, day 5): 163 mm³
- Mean tumor volume D7 (NCI-H460 tumors; Table 4, 8 mg/kg i.p. daily, day 7): 174 mm³
- Mean tumor volume D9 (NCI-H460 tumors; Table 4, 8 mg/kg i.p. daily, day 9): 254 mm³
- Mean tumor volume D11 (NCI-H460 tumors; Table 4, 8 mg/kg i.p. daily, day 11): 297 mm³
- Mean tumor volume D13 (NCI-H460 tumors; Table 4, 8 mg/kg i.p. daily, day 13): 297 mm³
- toxicity and body weight loss during treatment ([3]; 8 mg/kg intraperitoneally every day, 12 injections): No toxicity and no body weight loss
- Mean body weight D1 ([3]; Table 3, 8 mg/kg i.p. daily, day 1, in g): 22.59
- Mean body weight D3 ([3]; Table 3, 8 mg/kg i.p. daily, day 3, in g): 22.32
- Mean body weight D5 ([3]; Table 3, 8 mg/kg i.p. daily, day 5, in g): 22.78
- Mean body weight D7 ([3]; Table 3, 8 mg/kg i.p. daily, day 7, in g): 23.10
- Mean body weight D9 ([3]; Table 3, 8 mg/kg i.p. daily, day 9, in g): 23.00
- Mean body weight D11 ([3]; Table 3, 8 mg/kg i.p. daily, day 11, in g): 23.51
- Mean body weight D13 ([3]; Table 3, 8 mg/kg i.p. daily, day 13, in g): 23.05
- solubility in 10% DMSO [4]: soluble
